From US11013724B2, “Glutaminase inhibitors” (University of Pittsburgh—Of the Commonwealth System of …, priority 2014, dated 2021)

Assays:
[1] = target: recombinant GAC (human GAC, residues 72-603); assay: GAC enzyme assay (biochemical assay, glutamate dehydrogenase-coupled, absorbance at 340 nm); details: relative to prior art compound BPTES
Description: (§1) Cell culture media and serum were obtained from Invitrogen (Carlsbad, Calif.). All other reagents were obtained from Fisher Scientific (Pittsburgh, Pa.) or Sigma Aldrich (St. Louis, Mo.). MDA-MB-231 cells were purchased from ATCC (Manassas, Va.), and were cultured at 35° C., in 5% CO2, using RPMI-1640 media supplemented with 10% FBS, unless otherwise specified. Recombinant GAC was expressed in E. coli and purified. Briefly, human GAC (residues 72-603) was cloned into the pET28a vector from Novagen, and was expressed as a His6-tagged fusion protein in E. coli. It was then purified by ion exchange and size exclusion chromatography.
Biochemical assays: The GAC inhibitors were solvated in DMSO. Assay vessels were charged with 1 μL of inhibitor in order to effect the reported final concentration. To each vessel was added 95 μL of an aqueous solution containing 48 mM Tris-acetate (pH 8.6), 21 mM glutamine, and 50 nM recombinant GAC. Fifteen μL of either water or 1 M potassium phosphate, pH 8.2, were added to the mixture to begin the reaction. […] The absorbance of both the second and third reactions was recorded at […]. The third reaction was treated as a baseline, and its absorbance was subtracted from that of the second reaction prior to further data analysis. […] Dose curves and IC50 values were determined in Sigmaplot, using the built-in four parameter logistic function.

[2] = test system: MDA-MB 231 cancer cells; assay: MDA-MB-231 cell proliferation assay (cell counting on 6th day); assay type: cell-based; details: relative to prior art compound BPTES
Description: as §1
Cell assays: MDA-MB-231 cells were cultured in RPMI-1640 media supplemented with 10% FBS. Prior to initiating the assay, cells that were 70-80% confluent were trypsinized. These cells were diluted, counted, and dispensed into 12-well culture plates at a density of 2×10^4 cells per well. Each well was then brought to 1 mL of media, total. The cells were allowed to adhere to the wells overnight, at which point they were recounted (day 0 of the assay). […] Cells were counted on the 6th day of culture. […] Cells were then counted on a hemocytometer, with 3 readings taken and averaged per sample. […] Dose curves and IC50 values were determined in Sigmaplot, using the built-in four parameter logistic function.

Question: `O=C(Cc1ccccc1)Nc1nnc(OC2CCN(c3nnc(NC(=O)Cc4ccccc4)s3)CC2)s1` [UPGL00019, 2-Phenyl-N-{5-[1-(5-phenylacetylamino-[1,3,4]thiadiazol-2-yl)-piperidin-4-yloxy]-[1,3,4]thiadiazol-2-yl}-acetamide] was tested. Which “IC50 in the GAC enzyme assay compared directly to BPTES” value [1] did it give?
Answer: one order of magnitude better

Question: What about the “IC50 in inhibiting the proliferation of MDA-MB 231 cancer cells in vitro compared to BPTES” value [2] of the same compound?
Answer: better than BPTES by 2 orders of magnitude
